≈ marks a conversion by molar mass, not a printed value.
Assays:
[1] = test system: clinically isolated strain LCN 001; assay: MIC by broth dilution method (CLSI M11-A7); format: cell-based; conditions: Clostridioides difficile, LCN001, read-out: Sensitivity of C. difficile (MIC)
[2] = test system: Erythrocin-resistant strain C. difficile LCN 0081; assay: MIC by broth dilution method (CLSI M11-A7); format: cell-based; conditions: Clostridioides difficile, read-out: Sensitivity of C. difficile (MIC)
[3] = test system: Clindamycin-resistant strain C. difficile LCN 0027; assay: MIC by broth dilution method (CLSI M11-A7); format: cell-based; conditions: Clostridioides difficile, read-out: Sensitivity of C. difficile (MIC)
[4] = Pharmacokinetics of thiopeptcin after oral (intragastric) administration, plasma by LC-MS/MS; format: in vivo; conditions: after intragastric administration in rats, all doses and time points
Protocol: 30 μl of blood or urine sample was added into 90 μl of methanol containing 5 ng/ml verapamil. After vortexing for 3 min and centrifuging at 14,000 rpm for 5 min, 80 μl of supernatant was taken for LC-MS/MS analysis.
Conditions for LC were as follows: • Column: Waters Symmetry 300 C18 3.5 μm 2.1*100 mm; • Mobile phase A: 10 mM ammonium acetate+0.02% aqueous ammonia solution; mobile phase B: methanol; • Duration of analysis: 5.2 min; injection volume: 5 μL; column temperature: 25° C.; gradient elution:
Conditions for MS/MS analysis were as follows: • Mass Spectrometer: Positive Ion Mode (Agilent 6460B) • Detection of ion pairs: Thiopeptcin: 1437.3-172.0, fragment=135, CE=22; • Verapamil (internal standard): 455.2→165.1, fragment=135, CE=25; • Mass spectrometry parameters: gas temp at 350 ° C.; gas flow at 10 L/min; nebulizer of 40 psi; sheath gas flow at 10 L/min and sheath gas heater at 400° C.
Preparation of thiopeptcin: Certain amount of thiopeptcin was dissolved in a mixed solvent of pH 5.0 containing 10% PEG400, 1% Tween 80 and 5 mg/ml citric acid. The solution was shaken to be clear for intragastric administration.
Male rats were divided into 4 groups with high, medium, and low doses according to experimental purposes. The high dose group was 50 mg/kg, the middle dose group was 25 mg/kg, the low-1 dose group was 5 mg/kg and the low-2 dose group was 1 mg/kg. […]

[5] = test system: C. difficile ATCC 9689; assay: MIC by broth dilution method (CLSI M11-A7); format: cell-based; conditions: Clostridioides difficile, ATCC9689, read-out: Sensitivity of C. difficile (MIC)
[6] = test system: Reduced-sensitivity strain to Metronidazole C. difficile LCN 0048; assay: MIC by broth dilution method (CLSI M11-A7); format: cell-based; conditions: Clostridioides difficile
[7] = test system: Reduced-sensitivity strain to Vancomycin C. difficile LCN 0012; assay: MIC by broth dilution method (CLSI M11-A7); format: cell-based; conditions: Clostridioides difficile

Row | Structure (SMILES) | MIC [1] [µg/mL] | MIC [2] [µg/mL] | MIC [3] [µg/mL] | plasma concentration of thiopeptcin (below limit of quantification) [4] [ng/mL] | MIC [5] [µg/mL] | MIC [6] [µg/mL] | MIC [7] [µg/mL]
1 | C=C(NC(=O)c1csc(-c2nc3c(cc2O)-c2nc(cs2)C(=O)N[C@@H]([C@@H](C)O)C(=O)N/C(=C(\C)OC)c2nc(cs2)C(=O)N[C@@H]2c4nc(cs4)C(=O)N[C@@H](COC(=O)c4c5c6c(cccc6n4O)COC(=O)[C@@H](OC4C[C@](C)(O)[C@H](N(C)C)[C@H](C)O4)C2OC5)c2nc-3cs2)n1)C(N)=O (stereo partly shown) [Thiopeptcin] | 0.025 (≈ 0.0174 µM) | 0.005 (≈ 0.00348 µM) | 0.025 (≈ 0.0174 µM) | < 1 | 0.005 (≈ 0.00348 µM) | 0.005 to 0.01 (≈ 0.00348 to 0.00696 µM) | 0.025 to 0.05 (≈ 0.0174 to 0.0348 µM)
2 | CN[C@H](CC(C)C)C(=O)N[C@H]1C(=O)N[C@@H](CC(N)=O)C(=O)N[C@H]2C(=O)N[C@H]3C(=O)N[C@H](C(=O)N[C@H](C(=O)O)c4cc(O)cc(O)c4-c4cc3ccc4O)[C@H](O)c3ccc(c(Cl)c3)Oc3cc2cc(c3O[C@@H]2O[C@H](CO)[C@@H](O)[C@H](O)[C@H]2O[C@H]2C[C@](C)(N)[C@H](O)[C@H](C)O2)Oc2ccc(cc2Cl)[C@H]1O [Vancomycin, reference compound] | 0.5 (≈ 0.345 µM) | 1.5 (≈ 1.04 µM) | 1.5 (≈ 1.04 µM) | – | 0.25 (≈ 0.173 µM) | 0.8 to 3 (≈ 0.552 to 2.07 µM) | 4 to 8 (≈ 2.76 to 5.52 µM)

— patent US20190231844A1, “ORAL APPLICATION OF THIOPEPTCIN” (NANJING BIOTICA PHARMACEUTICAL COMPANY, priority 2015, published 2019)
